Measured values from publication PMC12131194, “Rational design, synthesis, and evaluation of novel polypharmacological compounds targeting NaV1.5, KV1.5, and K2P channels for atrial fibrillation” (The Journal of Biological Chemistry, 2025).
Like-named read-outs stand apart in the source and are kept apart here.

What was measured:
[1] = system: virtual atria with AF; set-up: method as in PMID 37475475, PMID 38870348; conditions: ref [74], [75]; cited from earlier work
[2] = biological target: T1, h NaV1.5 (Homo sapiens, UniProt Q14524, R1027Q); assay: TEVC recordings in X. laevis oocytes, NaV1.5; format: cell-based; conditions: 100 μM, −30 mV, oocytes, mean ± SD
T1 construct: expressed in transfected cells; host or cells: Xenopus laevis oocytes injected with cRNA
Procedure: (§1) To obtain X. laevis oocytes, the frogs were anesthetized with 2 g/L of tricaine methanesulfonate, and the ovarian lobes were mechanically separated with forceps. The oocytes were incubated for 120 min in an OR2 solution containing in mM: NaCl 82.5, KCl 2, MgCl2 1, HEPES 5 (pH 7.5) supplemented with 2 mg/ml of collagenase II (Sigma) to remove residual connective tissue and obtain individual oocytes. Subsequently, the oocytes were washed with a ND96 solution containing in mM: NaCl 96, KCl 2, CaCl2 1.8, MgCl2 1, HEPES 5 (pH 7.5, adjusted with NaOH) and stored at 18 °C in ND96 solution supplemented with 1 ml of gentamicin (50 mg/L), sodium pyruvate (275 mg/L) and (90 mg/L) theophylline (inhibits further oocyte maturation) before and after RNA injection.
(§2) In order to overexpress the channel in the oocyte, each of the channels to be measured was subcloned (complementary DNA (cDNA); human TASK-1 (KCNK3, NM_002246), h KV1.5 (KCNA5, NM_002234), h NaV1.5 (hH1, M77235), TASK-4/TALK-2 (KCNK17, NM_AF358910), TREK-1 (KCNK2, AF004711) and Kir2.1 (KCNJ2, NM_017296) into pSGEM, pBF1 or pSP64 expression vector, and the cDNA was linearized with NheI or MluI. Complementary RNA (cRNA) was synthesized with the mMESSAGE mMACHINE-Kit (Ambion). The quality of the cRNA was tested on an agarose gel by electrophoresis. cRNA was quantified using a UV-Vis spectrophotometer (NanoDrop 2000). Subsequently, the channel was transfected in the oocytes in stages V and VI, for which […] (TASK-1, KV1.5 or TREK-1), 10 ng (NaV1.5 or TASK-4) o 2.5 ng (Kir2.1) per oocyte of cRNA was injected with a NanojectII microinjector (Drummond Scientific). The oocytes were stored in 24-well plates for 24 to 48 h at 18 °C. After this time, the overexpression of each channel was monitored through electrophysiology.
(§3) Two-electrode voltage clamp measurements were performed 24 or 48 h after cRNA injection at room temperature (20–22 °C) in ND96 recording solution with a TurboTEC-10CD (npi) amplifier and a Digidata 1550B (for TASK-1 and KV1.5) and 1440A (for NaV1.5) A/D converter from Axon Instruments. Micropipettes were fabricated from GB 150 TF-8P borosilicate glass capillaries (Science Products) elongated in a DMZ-Universal Puller (Zeitz, Germany). […] ND96 was used as bath solution. Data acquisition was performed using Clampex 10 software (Axon Instruments), and data were analyzed with ClampFit 10 (Axon Instruments) and Origin 7 (Origin Lab Corporation).
(§4) For compound inhibition testing, from a holding potential of −80 mV a first test pulse to 0 mV of 1 s duration was followed by a repolarization step at −80 mV for 1 s, directly followed by another 1 s test pulse at +40 mV. The sweep time interval was 10 s for KV1.5 and TASK-1 channels. For the NaV1.5 channel, the block was analyzed with voltage steps from a holding potential of −80 mV. A first depolarizing pulse to −30 mV of 50 ms duration was applied, followed by a 5 ms step to −80 mV. The sweep time interval was 5 s. The compounds were applied at different concentrations to determine the half-maximal inhibitory concentration (IC50), using a fit to the Hill equation.
(§5) To test for a putative voltage-dependence of the block by the compound 6f in KV1.5, a 1.5 s voltage step protocol from −80 to +80 mV with +20 mV increments was used. The holding potential was −80 mV and the sweep time interval was 10 s. Currents were analyzed at the end of the voltage pulse. For TASK-1, voltage-dependence of block was probed using a high-potassium solution (KD96) containing in mM: KCl 96, NaCl 2, CaCl2 1.8, MgCl2 1, HEPES 5, (pH 7.5, adjusted with KOH). From a holding potential of 0 mV, voltage was stepped from −80 mV to +80 mV for 1.5 s in +20 mV steps every 10 s. To determine the current-voltage relationship of the NaV1.5 channel, the voltage was stepped for 50 ms from a holding potential of −80 mV to −70 mV to +80 mV in +10 mV increments every 5 s. The peak currents were subsequently plotted against the respective applied voltages.

[3] = biological target: T2, h KV1.5 (Homo sapiens, UniProt P22460); assay: TEVC recordings in X. laevis oocytes, KV1.5; format: cell-based; conditions: 100 μM, +40 mV, oocytes, mean ± SD
T2 construct: h KV1.5 (KCNA5, NM_002234); expressed in transfected cells; host or cells: Xenopus laevis oocytes injected with cRNA
Procedure: (§6) The two-electrode voltage clamp (TEVC) technique was used for electrophysiology tests. Channels were expressed in Xenopus laevis oocytes. The initial channel-blocking potential was assessed at 100 μM for the 10 synthesized compounds on TASK-1 and KV1.5 channels.
as §1, §2, §3, §4
as §5, with “To determine the current-voltage relationship of the NaV1.5 channel, the voltage was stepped for 50 ms from a holding potential of −80 mV to −70 mV to +80 mV in +10 mV increments every 5 s. The peak currents were subsequently plotted against the respective applied voltages.” left out

[4] = system: human erythrocytes; assay: Hemolysis assay; format: cell-based; conditions: 0.2–400 μM, 2 hours, 37 °C
Procedure: To evaluate cytotoxicity, the hemolysis of the compounds with the best simultaneous blocking activity on the channels (6e, 6f, 7a, 7b and 7c) was considered, modifying the protocol of Chen 2018 ([112]). Thus, non-heparinized human blood was collected. Erythrocytes were washed three times in 1× PBS (phosphate-buffered saline: NaCl, 8 g/L; KCl, 0.2 g/L; Na2HPO4, 1.44 g/L; and KH2PO4, 0.24 g/L; pH 7.4) and then used to prepare a 3% red blood cell (RBC) suspension. The assay was performed in a 96-well polypropylene microplate.
The compounds were prepared from 200 mM stock solutions in DMSO. Subsequently, 1:2 serial dilutions were made in 1× PBS, with final concentrations from 400 to 0.2 μM to a final volume of 200 μl per well. The microplate was incubated for 2 h at 37 °C and centrifuged at 3400 rpm for 5 min. Finally, 100 μl of the supernatant was transferred and measured in a 96-well plate. Hemoglobin release was monitored by photometric analysis of the supernatant at 540 nm using an Epoch Microplate Spectrophotometer (BioTek Instruments, Inc. Winooski, Vermont 05404-0998).
A 3% RBC suspension treated with Tween 20 was used to obtain total lysis as a positive control. Other authors who performed hemolysis assays have also considered this and other detergents, such as Triton X-100 and Sodium Dodecyl Sulfate (SDS) as positive controls ([113], [114], [115], [116]). The negative control was a suspension of red blood cells with PBS. Each experiment was performed in triplicate at all concentrations used. The percentage of hemolysis was calculated with the following (Equation 1), where Ad: absorbance of the dilution, A0: absorbance of the blank (RBC suspension with PBS), and At: total absorbance (positive control).(1) %hemolysis=Ad−A0/At−A0x100

[5] = system: NaV1.5; conditions: HEK-293 cells, racemic (R/S) compound, NaV1.5 open state; ref [40]; read-out: Reported IC50 NaV1.5; cited from earlier work
[6] = system: TASK-1; set-up: method as in PMID 21946151; conditions: HEK-293 cells; ref [38]; read-out: Reported IC50 TASK-1; cited from earlier work
[7] = biological target: human TASK-1 (Homo sapiens, UniProt O14649); assay: TEVC recordings in X. laevis oocytes, TASK-1; format: cell-based; set-up: human TASK-1 (KCNK3, NM_002246); expressed in transfected cells; host or cells: Xenopus laevis oocytes injected with cRNA; conditions: 100 μM, +40 mV, oocytes, mean ± SD
Procedure: as §6, §1, §2, §3, §4
as §5, with “To determine the current-voltage relationship of the NaV1.5 channel, the voltage was stepped for 50 ms from a holding potential of −80 mV to −70 mV to +80 mV in +10 mV increments every 5 s. The peak currents were subsequently plotted against the respective applied voltages.” left out

[8] = system: KV1.5; set-up: method as in PMID 33817777; conditions: X. laevis oocytes, ref [15], read-out: Reported IC50 KV1.5, cited from earlier work
[9] = system: NaV1.5; conditions: X. laevis oocytes, racemic (R/S) compound; ref [39]; read-out: Reported IC50 NaV1.5; cited from earlier work

T1 sequence (Q14524 whole entry R1027Q): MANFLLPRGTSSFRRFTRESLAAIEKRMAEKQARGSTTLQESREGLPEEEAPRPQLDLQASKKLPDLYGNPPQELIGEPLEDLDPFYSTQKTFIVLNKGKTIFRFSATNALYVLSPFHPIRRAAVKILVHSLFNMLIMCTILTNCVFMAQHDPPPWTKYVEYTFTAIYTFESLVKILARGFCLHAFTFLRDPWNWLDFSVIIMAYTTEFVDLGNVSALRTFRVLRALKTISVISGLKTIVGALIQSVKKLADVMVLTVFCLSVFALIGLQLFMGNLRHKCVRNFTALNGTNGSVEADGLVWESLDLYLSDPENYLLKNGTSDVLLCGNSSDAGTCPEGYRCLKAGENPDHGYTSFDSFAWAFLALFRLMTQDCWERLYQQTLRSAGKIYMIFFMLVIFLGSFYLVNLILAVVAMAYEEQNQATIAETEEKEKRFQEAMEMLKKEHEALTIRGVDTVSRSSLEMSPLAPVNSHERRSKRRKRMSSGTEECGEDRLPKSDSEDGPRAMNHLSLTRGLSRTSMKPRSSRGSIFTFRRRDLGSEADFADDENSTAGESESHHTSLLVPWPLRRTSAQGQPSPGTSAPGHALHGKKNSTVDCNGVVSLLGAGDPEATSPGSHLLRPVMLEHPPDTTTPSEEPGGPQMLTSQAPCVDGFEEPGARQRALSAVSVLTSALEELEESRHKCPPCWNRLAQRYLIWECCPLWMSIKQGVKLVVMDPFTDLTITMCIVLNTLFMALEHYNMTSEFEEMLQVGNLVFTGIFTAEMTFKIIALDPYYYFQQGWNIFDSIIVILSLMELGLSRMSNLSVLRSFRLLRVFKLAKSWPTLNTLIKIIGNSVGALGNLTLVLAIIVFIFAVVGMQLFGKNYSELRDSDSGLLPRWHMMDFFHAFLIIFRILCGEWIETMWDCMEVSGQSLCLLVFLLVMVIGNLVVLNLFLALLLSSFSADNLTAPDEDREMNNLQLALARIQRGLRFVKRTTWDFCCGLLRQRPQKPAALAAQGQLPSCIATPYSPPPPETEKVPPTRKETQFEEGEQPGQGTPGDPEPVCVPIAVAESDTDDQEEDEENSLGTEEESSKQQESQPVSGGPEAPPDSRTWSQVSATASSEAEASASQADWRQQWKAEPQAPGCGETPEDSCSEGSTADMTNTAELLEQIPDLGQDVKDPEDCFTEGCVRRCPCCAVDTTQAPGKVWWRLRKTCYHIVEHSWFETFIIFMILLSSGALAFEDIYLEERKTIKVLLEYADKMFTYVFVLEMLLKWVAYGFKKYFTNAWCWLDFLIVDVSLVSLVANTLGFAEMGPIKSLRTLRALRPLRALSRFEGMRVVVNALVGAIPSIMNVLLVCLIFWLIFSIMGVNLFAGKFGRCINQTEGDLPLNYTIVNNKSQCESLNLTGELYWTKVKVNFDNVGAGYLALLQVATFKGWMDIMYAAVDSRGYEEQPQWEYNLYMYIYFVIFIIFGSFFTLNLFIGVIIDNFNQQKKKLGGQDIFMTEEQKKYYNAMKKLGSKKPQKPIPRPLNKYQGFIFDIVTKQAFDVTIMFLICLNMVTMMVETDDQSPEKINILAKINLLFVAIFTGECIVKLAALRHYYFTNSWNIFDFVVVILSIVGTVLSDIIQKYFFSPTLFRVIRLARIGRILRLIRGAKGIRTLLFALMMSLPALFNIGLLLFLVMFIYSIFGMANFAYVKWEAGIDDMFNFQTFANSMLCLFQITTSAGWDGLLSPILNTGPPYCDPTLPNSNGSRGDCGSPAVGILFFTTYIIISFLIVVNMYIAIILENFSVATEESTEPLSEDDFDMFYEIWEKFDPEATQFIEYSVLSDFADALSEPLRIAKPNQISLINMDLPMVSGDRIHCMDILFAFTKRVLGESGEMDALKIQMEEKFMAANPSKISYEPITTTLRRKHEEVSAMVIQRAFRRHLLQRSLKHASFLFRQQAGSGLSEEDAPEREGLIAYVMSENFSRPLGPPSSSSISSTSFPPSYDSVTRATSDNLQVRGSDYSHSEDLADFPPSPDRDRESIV
T2 sequence (P22460 whole entry): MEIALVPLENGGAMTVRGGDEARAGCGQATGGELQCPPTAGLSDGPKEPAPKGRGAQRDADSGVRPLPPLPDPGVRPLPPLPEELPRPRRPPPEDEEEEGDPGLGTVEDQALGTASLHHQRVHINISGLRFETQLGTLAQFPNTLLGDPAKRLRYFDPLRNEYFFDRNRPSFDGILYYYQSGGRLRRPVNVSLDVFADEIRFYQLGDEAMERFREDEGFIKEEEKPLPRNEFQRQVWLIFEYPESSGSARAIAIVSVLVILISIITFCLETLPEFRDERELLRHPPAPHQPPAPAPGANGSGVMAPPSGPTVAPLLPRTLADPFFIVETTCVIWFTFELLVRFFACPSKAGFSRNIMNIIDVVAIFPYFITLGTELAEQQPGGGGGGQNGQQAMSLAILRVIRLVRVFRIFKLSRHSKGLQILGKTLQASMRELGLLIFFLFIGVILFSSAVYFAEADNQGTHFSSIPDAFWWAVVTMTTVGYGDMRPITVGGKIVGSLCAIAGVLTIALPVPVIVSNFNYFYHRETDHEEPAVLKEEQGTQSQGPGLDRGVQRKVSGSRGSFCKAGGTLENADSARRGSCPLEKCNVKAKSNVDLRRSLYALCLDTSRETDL
human TASK-1, sequence (O14649 whole entry): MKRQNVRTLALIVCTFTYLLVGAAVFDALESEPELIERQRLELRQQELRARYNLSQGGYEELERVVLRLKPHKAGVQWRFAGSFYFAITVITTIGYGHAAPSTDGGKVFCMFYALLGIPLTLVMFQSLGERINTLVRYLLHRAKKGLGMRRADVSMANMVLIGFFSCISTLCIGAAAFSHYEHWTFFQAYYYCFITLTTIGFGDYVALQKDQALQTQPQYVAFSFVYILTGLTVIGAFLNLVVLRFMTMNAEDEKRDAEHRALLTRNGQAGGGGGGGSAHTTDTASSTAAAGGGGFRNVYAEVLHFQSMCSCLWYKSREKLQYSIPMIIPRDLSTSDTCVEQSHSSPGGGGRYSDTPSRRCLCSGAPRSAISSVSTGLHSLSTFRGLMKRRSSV

In the case of `O=C(NCC1CCCCN1)c1cc(OCC(F)(F)F)ccc1OCC(F)(F)F` (stereo not shown) [flecainide], the “Cardioversion efficacy in other simulation studies” value (shortened to “Cardioversion efficacy”) [1] is given as 48–70%.
In the case of `CCCCN(CCCC)C(C)C(=O)Nc1ccccc1C` (stereo not shown) [Compound 7b, 2-(dibutylamine)-N-(o-tolyl)propanamide], the inhibition at 100 µM [2] is reported as 58.9 ± 21.2%, the inhibition at 100 µM [3] is reported as 36.9 ± 13.6% and the Hemolytic effect [4] is reported as “no hemolytic effect”.
In the case of `CCCN1CCCC[C@H]1C(=O)Nc1c(C)cccc1C` [Ropivacaine, ropivacaine], the IC50 [5] is listed as 322 µM and the IC50 [6] is listed as 17.6 µM.
`CCCCN(CCCC)CC(=O)Nc1ccccc1CC` [Compound 6b, 2-(dibutylamine)-N-(2-ethylphenyl)acetamide] showed an inhibition at 100 µM [3] of 12.3 to 35.7%.
For `COc1ccc(CCO[C@@H]2CCCC[C@H]2N2CC[C@@H](O)C2)cc1OC` [vernakalant], the “Cardioversion efficacy” value [1] is given as 42–57%.
For `Cc1cc(C)cc(NC(=O)CN(C(C)C)C(C)C)c1` [Compound 6d, 2-(diisopropylamine)-N-(3,5-dimetylphenyl)acetamide], the inhibition at 100 µM [3] was 12.3 ± 6.01%.
For `CCCCc1oc2ccccc2c1C(=O)c1cc(I)c(OCCN(CC)CC)c(I)c1` [amiodarone], the “Cardioversion efficacy” value [1] is given as 57–80%.
With `CCCCN(CCCC)CC(=O)Nc1ccc(OC)cc1` [Compound 6e, 2-(dibutylamine)-N-(4-methoxiphenyl)acetamide] the inhibition at 100 µM [2] was 81.2 ± 19%, the inhibition at 100 µM [3] was 42.2 ± 21.2% and the Hemolytic effect [4] was “no hemolytic effect”.
`CCCCN(CCCC)CC(=O)Nc1ccccc1C` [Compound 6a, 2-(dibutylamine)-N-(o-tolyl)acetamide] showed an inhibition at 100 µM [3] of 12.3 to 35.7% and an inhibition at 100 µM [7] of 88.3 ± 6.57%.
In the case of `CCCCN(CCCC)C(C)C(=O)Nc1ccc(OC)cc1` (stereo not shown) [Compound 7a, 2-(dibutylamine)-N-(4-methoxiphenyl)propanamide], the inhibition at 100 µM [2] is reported as 11.9 ± 15%, the inhibition at 100 µM [3] is reported as 38 ± 16.1% and the Hemolytic effect [4] is reported as “no hemolytic effect”.
For `CCCCN1CCCCC1C(=O)Nc1c(C)cccc1C` (stereo not shown) [Bupivacaine, bupivacaine], the IC50 ([8]; racemic (R/S) compound) is given as 31 µM, the IC50 [9] is given as 4.5 µM and the IC50 [6] is given as 12.1 µM.
`CCCCN(CCCC)C(C)C(=O)Nc1cccc2ccccc12` (stereo not shown) [Compound 7c, 2-(dibutylamine)-N-(naphthalen-1-yl)propanamide] gave an inhibition at 100 µM [2] of 31.1 ± 13.7%, an inhibition at 100 µM [3] of 35.7 ± 18.3% and an inhibition at 100 µM [7] of 89.3 ± 6.56%. The Hemolytic effect [4] was “no hemolytic effect”.
For `CCCN1CCCC[C@H]1C(=O)Nc1c(C)cccc1C` [ropivacaineS], the IC50 ([8]; S enantiomer) is listed as 129 µM.
For `CCCCN(CCCC)C(C)C(=O)Nc1cc(C)cc(C)c1` (stereo not shown) [Compound 7d, 2-(dibutylamine)-N-(3,5-dimetilphenyl)propanamide], the inhibition at 100 µM [3] was 12.3 to 35.7%.
Work on `CCCCN(CCCC)CC(=O)Nc1cc(C)cc(C)c1` [Compound 6c, 2-(dibutylamine)-N-(3,5-dimethylphenyl)acetamide] yielded an inhibition at 100 µM [3] of 12.3 to 35.7%.
